These results are taken from PubChem BioAssay AID328 (DTP/NCI, 2004).

Values joined by “and” are separate entries in the source; they are usually repeats but may differ in a detail not shown here. Equal entries are not always repeated. Toxic doses and inconclusive results are not listed. Non-standard residues stand in square brackets, D forms with d. Residues, ends and D or L forms follow the SMILES beside them. ξ: configuration not given here. *: point of attachment. Nphe = O=C(O)CNCc1ccccc1; ξL = CC(C)CC(N)C(=O)O; Ms = CS(=O)(=O)*

This test deals with BDF1 mice, P388 leukemia ip, median survival T/C. As to the kind of experiment: NCI In Vivo Anticancer Drug Screen. Data for tumor model P388 Leukemia (intraperitoneal) in B6D2F1 (BDF1) mice. Conditions: endpoint: median survival time, higher = longer survival. In outline:
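Compound-treated tumour-bearing mice were compared with vehicle-treated controls. Survival was recorded, and the value is the treated-group measurement divided by the control-group measurement (T/C).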

Where [1] appears, read: dose: 50.0 mg/kg/injection, schedule: Q01DX009 (ip), vehicle: other.
Where [2] appears, read: dose: 100.0 mg/kg/injection, schedule: Q01DX009 (ip), vehicle: other.
Setting [3] is: dose: 200.0 mg/kg/injection, schedule: Q01DX009 (ip), vehicle: other.
Setting [4] is: dose: 200.0 mg/kg/injection, schedule: Q01DX009 (ip), vehicle: saline with Tween-80.
[5] abbreviates: dose: 6.25 mg/kg/injection, schedule: Q01DX009 (ip), vehicle: saline with Tween-80.
Where [6] appears, read: dose: 100.0 mg/kg/injection, schedule: Q01DX009 (ip), vehicle: Klucel (hydroxypropylcellulose) (HPC).
[7] abbreviates: dose: 100.0 mg/kg/injection, schedule: Q04DX003 (ip), vehicle: saline.
Setting [8] is: dose: 200.0 mg/kg/injection, schedule: Q04DX003 (ip), vehicle: saline.
[9] abbreviates: dose: 50.0 mg/kg/injection, schedule: Q01DX009 (ip), vehicle: saline with Tween-80.
[10] abbreviates: dose: 100.0 mg/kg/injection, schedule: Q01DX009 (ip), vehicle: saline with Tween-80.
[11] abbreviates: dose: 12.5 mg/kg/injection, schedule: Q01DX009 (ip), vehicle: saline with Tween-80.
The mark [12] stands for this setting: dose: 25.0 mg/kg/injection, schedule: Q01DX009 (ip), vehicle: saline with Tween-80.

Take `ClC1C(Cl)C2CC1C1OC21` (stereo unspecified): the T/C is, setting by setting: under setting [1], 101 % of control; under setting [2], 100 % of control; under setting [3], 100 % of control.

For `C/C(=N\Nc1ccc([N+](=O)[O-])cc1[N+](=O)[O-])C(F)(F)F`, the T/C runs as follows: (dose: 44.0 mg/kg/injection, schedule: Q01DX009 (ip), vehicle: other) 95 % of control; (dose: 66.0 mg/kg/injection, schedule: Q01DX009 (ip), vehicle: other) 100 % of control; under setting [2], 100 % of control; (dose: 100.0 mg/kg/injection, schedule: Q04DX003 (ip), vehicle: Klucel (hydroxypropylcellulose) (HPC)) 100 % of control; (dose: 150.0 mg/kg/injection, schedule: Q01DX009 (ip), vehicle: other) 95 % of control; under setting [4], 115 % of control. Moreover, the T/C runs as follows: (dose: 200.0 mg/kg/injection, schedule: Q04DX003 (ip), vehicle: Klucel (hydroxypropylcellulose) (HPC)) 100 % of control; (dose: 400.0 mg/kg/injection, schedule: Q01DX009 (ip), vehicle: saline with Tween-80) 100 % of control; (dose: 400.0 mg/kg/injection, schedule: Q04DX003 (ip), vehicle: Klucel (hydroxypropylcellulose) (HPC)) 100 % of control.

In the case of `C[C@]12CC[C@@H]3c4ccc(Oc5nc(N6CC6)nc(N6CC6)n5)cc4CC[C@H]3[C@@H]1CCC2=O`, the T/C was 91 % of control (dose: 3.12 mg/kg/injection, schedule: Q01DX009 (ip), vehicle: saline with Tween-80) and 100 % of control under setting [5].

Take `CSc1nnnn1-c1ccccc1`: the T/C was 104 % of control (dose: 16.5 mg/kg/injection, schedule: Q01DX009 (ip), vehicle: Klucel (hydroxypropylcellulose) (HPC)); 95 % of control (dose: 25.0 mg/kg/injection, schedule: Q01DX009 (ip), vehicle: Klucel (hydroxypropylcellulose) (HPC)); 104 % of control (dose: 37.5 mg/kg/injection, schedule: Q01DX009 (ip), vehicle: Klucel (hydroxypropylcellulose) (HPC)); 100 % of control (dose: 50.0 mg/kg/injection, schedule: Q01DX009 (ip), vehicle: Klucel (hydroxypropylcellulose) (HPC)); 100 % of control under setting [6].

Regarding `CCCCN(C)N=Nc1ccc(CCC(=O)OCC)cc1`, the T/C (dose: 78.0 mg/kg/injection, schedule: Q04DX003 (ip), vehicle: saline with Tween-80) is 100 % of control; the T/C (dose: 118.0 mg/kg/injection, schedule: Q04DX003 (ip), vehicle: saline with Tween-80) was 118 % of control; the T/C (dose: 177.0 mg/kg/injection, schedule: Q04DX003 (ip), vehicle: saline with Tween-80) was 104 % of control; the T/C (dose: 200.0 mg/kg/injection, schedule: Q04DX003 (ip), vehicle: saline with Tween-80) is 118 % of control; the T/C (dose: 400.0 mg/kg/injection, schedule: Q04DX003 (ip), vehicle: saline with Tween-80) is 150 % of control and 168 % of control; the T/C (dose: 600.0 mg/kg/injection, schedule: Q04DX003 (ip), vehicle: saline with Tween-80) was 184 % of control.

`CCC(O)Cc1c[nH]c(=O)[nH]c1=O` (stereo unspecified): the T/C (dose: 50.0 mg/kg/injection, schedule: Q01DX009 (ip), vehicle: saline) is 90 % of control; the T/C (dose: 50.0 mg/kg/injection, schedule: Q04DX003 (ip), vehicle: saline) is 104 % of control; the T/C (dose: 100.0 mg/kg/injection, schedule: Q01DX009 (ip), vehicle: saline) was 105 % of control; the T/C under setting [7] is 102 % of control; the T/C (dose: 200.0 mg/kg/injection, schedule: Q01DX009 (ip), vehicle: saline) was 112 % of control; the T/C under setting [8] is 109 % of control.

Regarding `CCN(Cc1ccccc1)c1ccc(/C=C/c2ccnc3ccccc23)cc1`, the T/C by setting is: under setting [9], 100 % of control; under setting [10], 90 % of control; under setting [4], 108 % of control.

With `Cc1ccc(NCc2cccc3ccccc23)c(C)c1`, the T/C is, setting by setting: under setting [7], 91 % of control; under setting [8], 100 % of control; (dose: 400.0 mg/kg/injection, schedule: Q04DX003 (ip), vehicle: saline) 95 % of control.

Regarding `COC(=O)c1ccccc1C1(c2ccccc2C(=O)OC)OC(=O)c2ccccc21`, the T/C runs as follows: under setting [6], 100 % of control; (dose: 200.0 mg/kg/injection, schedule: Q01DX009 (ip), vehicle: Klucel (hydroxypropylcellulose) (HPC)) 100 % of control; (dose: 400.0 mg/kg/injection, schedule: Q01DX009 (ip), vehicle: Klucel (hydroxypropylcellulose) (HPC)) 100 % of control.

As for `Cc1cc(S(=O)(=O)c2ccc(Cl)c(C)c2)ccc1Cl`, the T/C was 105 % of control under setting [9], 100 % of control under setting [10] and 91 % of control under setting [4].

Regarding `CCC1=C2C(=O)c3ccccc3C2=C(C)S(=O)(=O)O1`, the T/C under setting [5] was 113 % of control and 118 % of control; the T/C under setting [11] is 118 % of control; the T/C under setting [12] was 122 % of control.

On to `Cc1ccc(N2CCN(CCCN3CCN(c4ccccc4Cl)CC3)CC2)cc1`, for which the T/C is 86 % of control under setting [5]; 104 % of control (dose: 6.25 mg/kg/injection, schedule: Q04DX003 (ip), vehicle: saline); 95 % of control under setting [11]; 100 % of control (dose: 12.5 mg/kg/injection, schedule: Q04DX003 (ip), vehicle: saline); 100 % of control under setting [12]; 104 % of control (dose: 25.0 mg/kg/injection, schedule: Q04DX003 (ip), vehicle: saline).

As to `CC(=O)N/N=C(/C)C(=O)O`, the T/C by setting is: (dose: 12.5 mg/kg/injection, schedule: Q01DX009 (ip), vehicle: water) 93 % of control and 102 % of control and 114 % of control; (dose: 12.5 mg/kg/injection, schedule: Q04DX003 (ip), vehicle: water) 95 % of control; (dose: 25.0 mg/kg/injection, schedule: Q04DX003 (ip), vehicle: water) 100 % of control; (dose: 50.0 mg/kg/injection, schedule: Q04DX003 (ip), vehicle: water) 100 % of control.

Turning to `O=C(NCCNC(=O)c1cccnc1)c1ccncc1`, the T/C (dose: 100.0 mg/kg/injection, schedule: Q01DX001 (ip), vehicle: saline) was 90 % of control; the T/C (dose: 200.0 mg/kg/injection, schedule: Q01DX001 (ip), vehicle: saline) was 90 % of control; the T/C (dose: 400.0 mg/kg/injection, schedule: Q01DX001 (ip), vehicle: saline) is 90 % of control.

Take `Nc1ccccc1C(=O)Nc1ncn[nH]1`: the T/C under setting [9] was 96 % of control, the T/C under setting [10] is 90 % of control and the T/C under setting [4] was 94 % of control.

On to `CC(C)CC(NC(=O)CN(Cc1ccccc1)S(C)(=O)=O)C(=O)O` (stereo unspecified) (Ms-[Nphe]-[ξL]-OH), for which the T/C runs as follows: (dose: 6.25 mg/kg/injection, schedule: Q04DX003 (ip), vehicle: other) 110 % of control; (dose: 12.5 mg/kg/injection, schedule: Q04DX003 (ip), vehicle: other) 97 % of control; (dose: 25.0 mg/kg/injection, schedule: Q04DX003 (ip), vehicle: other) 113 % of control; under setting [1], 151 % of control; (dose: 50.0 mg/kg/injection, schedule: Q04DX003 (ip), vehicle: other) 95 % of control and 98 % of control; (dose: 100.0 mg/kg/injection, schedule: Q04DX003 (ip), vehicle: other) 100 % of control and 103 % of control. The T/C reads like this: under setting [3], 89 % of control; (dose: 200.0 mg/kg/injection, schedule: Q04DX003 (ip), vehicle: other) 98 % of control and 106 % of control; (dose: 400.0 mg/kg/injection, schedule: Q04DX003 (ip), vehicle: other) 106 % of control.

With `O=C(O)C1CCCC2C(O)CCC(=O)C12` (stereo unspecified), the T/C was 100 % of control under setting [10] and 109 % of control under setting [4].

On to `NC(C(=O)O)c1cc(=O)[nH]o1` (stereo unspecified), for which the T/C reads like this: (dose: 0.25 mg/kg/injection, schedule: Q01DX009 (ip), vehicle: Klucel (hydroxypropylcellulose) (HPC)) 86 % of control; (dose: 0.5 mg/kg/injection, schedule: Q01DX009 (ip), vehicle: Klucel (hydroxypropylcellulose) (HPC)) 97 % of control; (dose: 1.0 mg/kg/injection, schedule: Q01DX009 (ip), vehicle: Klucel (hydroxypropylcellulose) (HPC)) 112 % of control.
